Assay results from ChEMBL document CHEMBL1221210, “A Cdc7 kinase inhibitor restricts initiation of DNA replication and has antitumor activity” (Nat Chem Biol, 2008).

Tests used:
[1] = target: Serine/threonine-protein kinase TAO3 (Homo sapiens, UniProt Q9H2K8); test: Inhibition of TAO3
[2] = Induction of cell cycle arrest in p53 deficient human A2780/E6 cells assessed as residual DNA synthesis at 5 uM after 24 hrs by FACS analysis; format: functional
PC-3 [3] = test: Induction of cell cycle arrest in human PC3 cells expressing p53 gene assessed as accumulation at subG1 phase at 10 uM after 24 hrs by FACS analysis; format: functional
HCT-116 [4] = test: Induction of cell cycle arrest in human HCT116 cells expressing p53 gene assessed as accumulation at subG1 phase at 10 uM after 24 hrs by FACS analysis; format: functional
HCT-116 [5] = test: Induction of cell cycle arrest in human HCT116 cells expressing p53 gene assessed as accumulation at subG1 phase at 5 uM after 24hrs by FACS analysis; format: functional
HCT-15 [6] = test: Induction of cell cycle arrest in human HCT15 cells expressing p53 gene assessed as accumulation at subG1 phase at 5 uM after 24hrs by FACS analysis; format: functional
OVCAR-8 [7] = test: Induction of cell cycle arrest in p53 deficient human OVCAR8 cells assessed as residual DNA synthesis at 10 uM after 24 hrs by FACS analysis; format: functional
HeLa [8] = test: Inhibition of DNA replication in human HeLa cells assessed as interorigin distance between homogenous DNA fibers at 20 uM after 4 hrs by immunofluorescence assay; format: functional
HeLa [9] = test: Inhibition of DNA synthesis in human HeLa cells assessed as Brd-U uptake at 5 uM by FACS analysis; format: functional; parameters: scale not given: the % may be the effect or the level left
PC-3 [10] = test: Induction of cell cycle arrest in human PC3 cells expressing p53 gene assessed as residual DNA synthesis at 5 uM after 24 hrs by FACS analysis; format: functional
K562 [11] = test: Induction of cell cycle arrest in p53 deficient human K562 cells assessed as accumulation at subG1 phase at 5 uM after 24hrs by FACS analysis; format: functional
A2780 [12] = test: Induction of cell cycle arrest in human A2780 cells expressing p53 gene assessed as accumulation at subG1 phase at 5 uM after 24hrs by FACS analysis; format: functional
HeLa [13] = test: Inhibition of DNA replication in human HeLa cells assessed as interorigin distance between homogenous DNA fibers at 20 uM after 6 hrs by immunofluorescence assay; format: functional
NHDF [14] = test: Prevention of nocodazole induced mitotic arrest in NHDF after 1 hr by FACS analysis; format: cell-based; conditions: human
HeLa [15] = test: Inhibition of DNA replication in human HeLa cells assessed as increase in replication fork speed per min at 5 uM after 6 hrs by immunofluorescence assay; format: functional
K562 [16] = test: Induction of cell cycle arrest in p53 deficient human K562 cells assessed as accumulation at subG1 phase at 10 uM after 24hrs by FACS analysis; format: functional
HCT-15 [17] = test: Antiproliferative activity against human HCT15 cells expressing p53 gene after 72 hrs by proliferative assay; format: functional, cell-based; conditions: HCT-15, 72 h
HeLa [18] = test: Inhibition of DNA replication in human HeLa cells assessed as increase in replication fork speed per min at 5 uM after 4 hrs by immunofluorescence assay; format: functional
PC-3 [19] = test: Antiproliferative activity against human PC3 cells expressing p53 gene after 72 hrs by proliferative assay; format: functional, cell-based; conditions: PC-3, 72 h
Jurkat [20] = test: Antiproliferative activity against p53 deficient human Jurkat cells after 72 hrs by proliferative assay; format: functional, cell-based
[21] = Antiproliferative activity against p53 deficient human A2780/E6 cells after 72 hrs by proliferative assay; format: functional, cell-based; conditions: A2780/E6, 72 h
NHDF [22] = test: Induction of cell cycle arrest in NHDF expressing p53 gene assessed as accumulation at subG1 phase at 10 uM after 24 hrs by FACS analysis; format: cell-based; conditions: human
HeLa [23] = test: Inhibition of DNA replication in human HeLa cells assessed as increase in replication fork speed per min at 2 uM after 6 hrs by immunofluorescence assay; format: functional
Jurkat [24] = test: Induction of cell cycle arrest in p53 deficient human Jurkat cells assessed as accumulation at subG1 phase at 10 uM after 24hrs by FACS analysis; format: functional
HeLa [25] = test: Inhibition of DNA replication in human HeLa cells assessed as increase in replication fork speed per min at 2 uM after 2 hrs by immunofluorescence assay; format: functional
Rattus norvegicus = test: AUC in rat carrying DMBA-induced mammary carcinoma at 10 mg/kg, iv after 10 hrs; format: ADME, organism-based, Plasma; parameters: time < 10 hr, dose 10 mg/kg, route intravenous; conditions: in vivo
[26] = target: Tyrosine-protein kinase ZAP-70 (Homo sapiens, UniProt P43403); test: Inhibition of ZAP70
Chain of Tyrosine-protein kinase ZAP-70 (P43403 whole entry): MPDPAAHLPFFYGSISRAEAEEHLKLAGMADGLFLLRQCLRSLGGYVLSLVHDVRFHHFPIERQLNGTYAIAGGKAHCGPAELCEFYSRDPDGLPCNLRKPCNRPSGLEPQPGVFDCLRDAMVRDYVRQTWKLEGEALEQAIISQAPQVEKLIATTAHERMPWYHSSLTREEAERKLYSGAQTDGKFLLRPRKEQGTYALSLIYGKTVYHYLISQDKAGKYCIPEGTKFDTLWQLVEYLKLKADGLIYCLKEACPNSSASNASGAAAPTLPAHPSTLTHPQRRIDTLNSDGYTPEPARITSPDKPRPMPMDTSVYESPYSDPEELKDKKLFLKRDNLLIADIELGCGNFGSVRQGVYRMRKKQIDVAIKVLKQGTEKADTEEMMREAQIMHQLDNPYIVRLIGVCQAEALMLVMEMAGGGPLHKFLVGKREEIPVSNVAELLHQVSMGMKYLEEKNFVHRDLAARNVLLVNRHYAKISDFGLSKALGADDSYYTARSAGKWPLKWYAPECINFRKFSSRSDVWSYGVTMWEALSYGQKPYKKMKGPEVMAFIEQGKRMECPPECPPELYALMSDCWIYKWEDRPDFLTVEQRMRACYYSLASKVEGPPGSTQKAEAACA

[27] = Inhibition of Ck2
OVCAR-8 [28] = test: Induction of cell cycle arrest in p53 deficient human OVCAR8 cells assessed as accumulation at subG1 phase at 5 uM after 24hrs by FACS analysis; format: functional
SF-268 = test: Induction of cell cycle arrest in p53 deficient human SF268 cells assessed as residual DNA synthesis at 10 uM after 24 hrs by FACS analysis; format: functional
U2OS = test: Induction of cell cycle arrest in human U2OS cells expressing p53 gene assessed as residual DNA synthesis at 10 uM after 24 hrs by FACS analysis; format: functional
[29] = target: Inhibitor of nuclear factor kappa-B kinase subunit beta (Homo sapiens, UniProt O14920); test: Inhibition of IKK2
Chain of Inhibitor of nuclear factor kappa-B kinase subunit beta (O14920 whole entry): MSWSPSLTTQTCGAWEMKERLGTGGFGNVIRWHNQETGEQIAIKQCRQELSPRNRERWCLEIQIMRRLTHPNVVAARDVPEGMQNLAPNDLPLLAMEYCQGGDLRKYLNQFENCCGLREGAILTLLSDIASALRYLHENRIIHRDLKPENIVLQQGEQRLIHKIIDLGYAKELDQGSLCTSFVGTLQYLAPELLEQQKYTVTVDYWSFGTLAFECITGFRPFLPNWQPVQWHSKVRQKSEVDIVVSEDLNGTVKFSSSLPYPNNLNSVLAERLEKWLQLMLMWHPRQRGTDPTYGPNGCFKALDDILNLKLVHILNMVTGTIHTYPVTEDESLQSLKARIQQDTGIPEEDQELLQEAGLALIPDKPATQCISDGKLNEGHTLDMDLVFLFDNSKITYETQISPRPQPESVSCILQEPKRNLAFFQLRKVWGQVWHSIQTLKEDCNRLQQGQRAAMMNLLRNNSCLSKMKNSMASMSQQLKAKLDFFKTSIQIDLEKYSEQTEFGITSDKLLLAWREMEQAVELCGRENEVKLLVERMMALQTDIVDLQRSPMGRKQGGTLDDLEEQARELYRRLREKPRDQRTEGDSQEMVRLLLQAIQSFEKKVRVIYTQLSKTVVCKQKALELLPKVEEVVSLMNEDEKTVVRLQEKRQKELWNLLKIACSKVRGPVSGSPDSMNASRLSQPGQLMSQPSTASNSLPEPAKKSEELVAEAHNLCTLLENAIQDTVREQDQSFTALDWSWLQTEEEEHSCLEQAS

PC-3 [30] = test: Induction of cell cycle arrest in human PC3 cells expressing p53 gene assessed as residual DNA synthesis at 10 uM after 24 hrs by FACS analysis; format: functional
NHDF [31] = test: Induction of cell cycle arrest in NHDF expressing p53 gene assessed as residual DNA synthesis at 5 uM after 24 hrs by FACS analysis; format: cell-based; conditions: human
HCT-15 [32] = test: Induction of cell cycle arrest in human HCT15 cells expressing p53 gene assessed as accumulation at subG1 phase at 10 uM after 24 hrs by FACS analysis; format: functional
SW480 = test: Induction of cell cycle arrest in p53 deficient human SW480 cells assessed as accumulation at subG1 phase at 5 uM after 24hrs by FACS analysis; format: functional
[33] = target: Serine/threonine-protein kinase NIM1 (Homo sapiens, UniProt Q8IY84); test: Inhibition of NIM1
Chain of Serine/threonine-protein kinase NIM1 (Q8IY84 whole entry): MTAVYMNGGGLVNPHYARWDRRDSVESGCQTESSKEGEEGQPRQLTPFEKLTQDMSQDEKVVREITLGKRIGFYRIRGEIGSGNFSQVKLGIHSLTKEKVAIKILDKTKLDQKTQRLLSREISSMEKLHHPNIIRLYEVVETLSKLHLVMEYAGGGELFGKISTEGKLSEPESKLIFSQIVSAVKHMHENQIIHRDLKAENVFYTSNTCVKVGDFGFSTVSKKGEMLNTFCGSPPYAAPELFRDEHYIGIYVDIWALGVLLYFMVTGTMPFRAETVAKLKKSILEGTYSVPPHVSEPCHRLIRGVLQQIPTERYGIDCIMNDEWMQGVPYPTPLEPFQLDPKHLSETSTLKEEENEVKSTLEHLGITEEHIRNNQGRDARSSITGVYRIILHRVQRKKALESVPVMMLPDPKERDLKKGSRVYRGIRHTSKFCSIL

[34] = target: Protein kinase C beta type (Homo sapiens, UniProt P05771); test: Inhibition of PKCbeta
Chain of Protein kinase C beta type (P05771 whole entry): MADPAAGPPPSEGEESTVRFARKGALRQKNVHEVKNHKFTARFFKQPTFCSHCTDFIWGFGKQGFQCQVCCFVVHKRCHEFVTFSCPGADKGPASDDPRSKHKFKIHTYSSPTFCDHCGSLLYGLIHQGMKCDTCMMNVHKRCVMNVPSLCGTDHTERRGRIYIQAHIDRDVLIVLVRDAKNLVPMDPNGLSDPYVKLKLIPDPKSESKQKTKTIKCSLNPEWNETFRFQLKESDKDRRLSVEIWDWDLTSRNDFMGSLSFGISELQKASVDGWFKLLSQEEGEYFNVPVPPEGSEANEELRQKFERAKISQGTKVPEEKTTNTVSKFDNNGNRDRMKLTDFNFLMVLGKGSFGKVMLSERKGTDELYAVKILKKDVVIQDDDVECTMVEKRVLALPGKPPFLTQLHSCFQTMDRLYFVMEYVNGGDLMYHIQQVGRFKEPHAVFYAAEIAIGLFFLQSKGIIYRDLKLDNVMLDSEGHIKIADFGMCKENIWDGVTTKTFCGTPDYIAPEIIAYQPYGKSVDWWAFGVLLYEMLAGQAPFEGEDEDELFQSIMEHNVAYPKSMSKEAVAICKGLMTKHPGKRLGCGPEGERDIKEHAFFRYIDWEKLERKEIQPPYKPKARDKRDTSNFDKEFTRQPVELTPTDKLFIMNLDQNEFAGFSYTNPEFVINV

NHDF [35] = test: Induction of cell cycle arrest in NHDF expressing p53 gene assessed as accumulation at subG1 phase at 5 uM after 24hrs by FACS analysis; format: cell-based; conditions: human
A2780 [36] = test: Induction of cell cycle arrest in human A2780 cells expressing p53 gene assessed as residual DNA synthesis at 5 uM after 24 hrs by FACS analysis; format: functional

Chain of Serine/threonine-protein kinase TAO3 (Q9H2K8 whole entry): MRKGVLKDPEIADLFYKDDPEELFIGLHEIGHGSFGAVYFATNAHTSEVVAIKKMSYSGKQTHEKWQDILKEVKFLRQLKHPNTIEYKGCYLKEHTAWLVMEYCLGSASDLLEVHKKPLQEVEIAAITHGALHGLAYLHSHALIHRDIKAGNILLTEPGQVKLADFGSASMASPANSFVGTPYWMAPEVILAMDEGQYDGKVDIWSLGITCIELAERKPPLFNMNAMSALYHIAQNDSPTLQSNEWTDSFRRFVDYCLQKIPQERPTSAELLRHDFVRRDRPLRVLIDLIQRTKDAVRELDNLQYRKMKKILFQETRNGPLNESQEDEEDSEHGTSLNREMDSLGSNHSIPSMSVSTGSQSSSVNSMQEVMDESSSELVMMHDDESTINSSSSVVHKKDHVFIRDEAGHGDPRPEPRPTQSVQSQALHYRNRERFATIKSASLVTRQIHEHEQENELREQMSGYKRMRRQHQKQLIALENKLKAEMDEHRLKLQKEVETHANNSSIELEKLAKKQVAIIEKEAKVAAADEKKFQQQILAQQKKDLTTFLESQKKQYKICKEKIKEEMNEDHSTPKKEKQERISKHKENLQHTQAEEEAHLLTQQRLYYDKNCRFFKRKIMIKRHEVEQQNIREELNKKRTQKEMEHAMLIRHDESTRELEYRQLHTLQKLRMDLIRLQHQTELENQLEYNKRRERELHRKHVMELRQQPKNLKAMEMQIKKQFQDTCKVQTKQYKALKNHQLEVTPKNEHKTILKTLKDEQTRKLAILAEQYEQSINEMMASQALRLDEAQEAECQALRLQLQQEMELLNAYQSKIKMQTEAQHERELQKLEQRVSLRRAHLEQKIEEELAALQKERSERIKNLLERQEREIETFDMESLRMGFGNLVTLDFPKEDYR

O=C1NCCc2[nH]c(-c3ccncc3)cc21
IC50 [1]: > 10 µM
Activity [2]: <3%
Activity (PC-3 [3]): 3%
Activity (HCT-116 [4]): 3%
Activity (HCT-116 [5]): 3%
Activity (HCT-15 [6]): 3%
Activity (OVCAR-8 [7]): <3%
Activity (HeLa [8]): 287 kilobase
Activity (HeLa [9]): 37%
Activity (PC-3 [10]): 3%
Activity (K562 [11]): <3%
Activity (A2780 [12]): >20%
Activity (HeLa [13]): 287 kilobase
Activity (NHDF [14]): Not Active
Activity (HeLa [15]): 2.14 kilobase
Activity (K562 [16]): <3%
IC50 (HCT-15 [17]): 3.81 µM
Activity (HeLa [18]): 2.02 kilobase
IC50 (PC-3 [19]): 4.59 µM
IC50 (Jurkat [20]): 3.2 µM
IC50 [21]: 1.5 µM
Activity (NHDF [22]): < 3%
Activity (HeLa [23]): 1.81 kilobase
Activity (Jurkat [24]): >20%
Activity (HeLa [25]): 1.8 kilobase
AUC (Rattus norvegicus): 21 µM·h
IC50 [26]: > 10 µM
IC50 [27]: > 10 µM
Activity (OVCAR-8 [28]): 3%
Activity (SF-268): <3%
Activity (U2OS): <3%
IC50 [29]: > 10 µM
Activity (PC-3 [30]): <3%
Activity (NHDF [31]): < 3%
Activity (HCT-15 [32]): 3%
Activity (SW480): >20%
IC50 [33]: > 10 µM
IC50 [34]: > 10 µM
Activity (NHDF [35]): < 3%
Activity (A2780 [36]): <3%
